Where a SMILES comes first, the peptide text is derived from it. Bridges are numbered along the chain shown (N, C = ends).
What was measured:
[1] = molecular target: 9H4 IgG; assay: SPR competition binding assay, mAb 9H4; parameters: species or system mouse; conditions: SPR competition assay (Biacore T200); 3D7 MSP2 immobilised on CM5 chip; eight three-fold dilutions of peptide from 10 µM with 50 nM 9H4 IgG; alanine scan of 16-residue MSP2_207–222; read-out: Kd against 9H4 IgG
Method: (§1) Affinities for peptide epitopes and dimer peptides to 4D11 and 9H4 IgG were measured by surface plasmon resonance (SPR) (Biacore T200, GE Healthcare, Parramatta, Australia) using a competition assay method developed previously. First, 3D7 MSP2 was immobilised on a CM5 chip. To determine binding, eight three-fold dilutions of peptide, from 10 µM stock were added with 50 nM 4D11/9H4 IgG to compete with the immobilised antigen. A standard curve was established by flowing eight two-fold dilutions of 4D11 or 9H4 IgG from a 100 nM stock solution.
In our previous work, the minimal epitope and key residues involved in 4D11 binding were defined as the 8-residue peptide 3D7-MSP2_215–222, with Lys216, Glu217 and Asn218 crucial for binding. To characterise the epitope of 9H4 and compare it with that of 4D11, the same alanine-scan peptides were used to probe 9H4 binding (Figure 1A,B). Affinities for 9H4 binding were measured by SPR, using a competition binding assay described previously.

[2] = molecular target: 4D11 IgG; assay: SPR competition binding assay, mAb 4D11; parameters: species or system mouse; conditions: SPR competition assay (Biacore T200); 3D7 MSP2 immobilised on CM5 chip; eight three-fold dilutions of peptide from 10 µM with 50 nM 4D11 IgG; alanine scan of 16-residue MSP2_207–222; read-out: Kd against 4D11 IgG
Method: as §1
Following the MD simulations, each peptide was synthesised by standard Fmoc synthesis. Orthogonal protection of cysteines was used to ensure that the desired disulfide bond was formed, leaving a single free cysteine for conjugation to an appropriate carrier for immunisation. […] Consequently, disulfide bond formation and cyclisation coupling were performed in solution. To determine if the additions incorporated into the dimer sequence hindered binding to 4D11, SPR was used to measure their binding affinity to the mAb (Table 2). […] For immunisations, the commonly used carrier protein, keyhole limpet hemocyanin (KLH) was chosen. As conjugation to KLH required a free thiol, an additional cysteine residue was included in all of the peptides (Figure 2).

Compound	Kd [1] [nM]	Kd [2] [nM]
CC(=O)N[C@@H](CO)C(=O)N[C@@H](CCC(N)=O)C(=O)N[C@@H](CCCCN)C(=O)N[C@@H](CCC(=O)O)C(=O)N[C@H]1CSSC[C@@H](C(=O)NCC(=O)N[C@@H](C)C(=O)N[C@@H](C)C(N)=O)NC(=O)[C@H](CC(N)=O)NC(=O)[C@H](CCC(=O)O)NC(=O)[C@H](CCCCN)NC(=O)[C@H](CC(N)=O)NC(=O)[C@H](C)NC(=O)[C@H](CC(=O)O)NC(=O)[C@H]([C@@H](C)O)NC1=O [Peptide G214A] (Ac-SQKECTDANKENCGAA-NH2; disulfide 5-13)	70	400
CC(=O)N[C@@H](CO)C(=O)N[C@@H](C)C(=O)N[C@@H](CCCCN)C(=O)N[C@@H](CCC(=O)O)C(=O)N[C@H]1CSSC[C@@H](C(=O)NCC(=O)N[C@@H](C)C(=O)N[C@@H](C)C(N)=O)NC(=O)[C@H](CC(N)=O)NC(=O)[C@H](CCC(=O)O)NC(=O)[C@H](CCCCN)NC(=O)[C@H](CC(N)=O)NC(=O)CNC(=O)[C@H](CC(=O)O)NC(=O)[C@H]([C@@H](C)O)NC1=O [Peptide Q208A] (Ac-SAKECTDGNKENCGAA-NH2; disulfide 5-13)	2900	400
CC(=O)N[C@@H](CO)C(=O)N[C@@H](CCC(N)=O)C(=O)N[C@@H](CCCCN)C(=O)N[C@@H](C)C(=O)N[C@H]1CSSC[C@@H](C(=O)NCC(=O)N[C@@H](C)C(=O)N[C@@H](C)C(N)=O)NC(=O)[C@H](CC(N)=O)NC(=O)[C@H](CCC(=O)O)NC(=O)[C@H](CCCCN)NC(=O)[C@H](CC(N)=O)NC(=O)CNC(=O)[C@H](CC(=O)O)NC(=O)[C@H]([C@@H](C)O)NC1=O [Peptide E210A] (Ac-SQKACTDGNKENCGAA-NH2; disulfide 5-13)	1400	500
CC(=O)N[C@@H](CO)C(=O)N[C@@H](CCC(N)=O)C(=O)N[C@@H](CCCCN)C(=O)N[C@@H](CCC(=O)O)C(=O)N[C@H]1CSSC[C@@H](C(=O)NCC(=O)N[C@@H](C)C(=O)N[C@@H](C)C(N)=O)NC(=O)[C@H](CC(N)=O)NC(=O)[C@H](CCC(=O)O)NC(=O)[C@H](CCCCN)NC(=O)[C@H](C)NC(=O)CNC(=O)[C@H](CC(=O)O)NC(=O)[C@H]([C@@H](C)O)NC1=O [Peptide N215A] (Ac-SQKECTDGAKENCGAA-NH2; disulfide 5-13)	100	500
CC(=O)N[C@@H](CO)C(=O)N[C@@H](CCC(N)=O)C(=O)N[C@@H](CCCCN)C(=O)N[C@@H](CCC(=O)O)C(=O)N[C@H]1CSSC[C@@H](C(=O)NCC(=O)N[C@@H](C)C(=O)N[C@@H](C)C(N)=O)NC(=O)[C@H](C)NC(=O)[C@H](CCC(=O)O)NC(=O)[C@H](CCCCN)NC(=O)[C@H](CC(N)=O)NC(=O)CNC(=O)[C@H](CC(=O)O)NC(=O)[C@H]([C@@H](C)O)NC1=O [Peptide N218A] (Ac-SQKECTDGNKEACGAA-NH2; disulfide 5-13)	2700	6000
CC(=O)N[C@@H](C)C(=O)N[C@@H](CCC(N)=O)C(=O)N[C@@H](CCCCN)C(=O)N[C@@H](CCC(=O)O)C(=O)N[C@H]1CSSC[C@@H](C(=O)NCC(=O)N[C@@H](C)C(=O)N[C@@H](C)C(N)=O)NC(=O)[C@H](CC(N)=O)NC(=O)[C@H](CCC(=O)O)NC(=O)[C@H](CCCCN)NC(=O)[C@H](CC(N)=O)NC(=O)CNC(=O)[C@H](CC(=O)O)NC(=O)[C@H]([C@@H](C)O)NC1=O [Peptide S207A] (Ac-AQKECTDGNKENCGAA-NH2; disulfide 5-13)	2900	500
CC(=O)N[C@@H](CO)C(=O)N[C@@H](CCC(N)=O)C(=O)N[C@@H](CCCCN)C(=O)N[C@@H](CCC(=O)O)C(=O)N[C@H]1CSSC[C@@H](C(=O)NCC(=O)N[C@@H](C)C(=O)N[C@@H](C)C(N)=O)NC(=O)[C@H](CC(N)=O)NC(=O)[C@H](CCC(=O)O)NC(=O)[C@H](C)NC(=O)[C@H](CC(N)=O)NC(=O)CNC(=O)[C@H](CC(=O)O)NC(=O)[C@H]([C@@H](C)O)NC1=O [Peptide K216A] (Ac-SQKECTDGNAENCGAA-NH2; disulfide 5-13)	90	21000
CC(=O)N[C@@H](CO)C(=O)N[C@@H](CCC(N)=O)C(=O)N[C@@H](CCCCN)C(=O)N[C@@H](CCC(=O)O)C(=O)N[C@H]1CSSC[C@@H](C(=O)NCC(=O)N[C@@H](C)C(=O)N[C@@H](C)C(N)=O)NC(=O)[C@H](CC(N)=O)NC(=O)[C@H](C)NC(=O)[C@H](CCCCN)NC(=O)[C@H](CC(N)=O)NC(=O)CNC(=O)[C@H](CC(=O)O)NC(=O)[C@H]([C@@H](C)O)NC1=O [Peptide E217A] (Ac-SQKECTDGNKANCGAA-NH2; disulfide 5-13)	90	219000
CC(=O)N[C@@H](CO)C(=O)N[C@@H](CCC(N)=O)C(=O)N[C@@H](CCCCN)C(=O)N[C@@H](CCC(=O)O)C(=O)N[C@H]1CSSC[C@@H](C(=O)NCC(=O)N[C@@H](C)C(=O)N[C@@H](C)C(N)=O)NC(=O)[C@H](CC(N)=O)NC(=O)[C@H](CCC(=O)O)NC(=O)[C@H](CCCCN)NC(=O)[C@H](CC(N)=O)NC(=O)CNC(=O)[C@H](CC(=O)O)NC(=O)[C@H]([C@@H](C)O)NC1=O [3D7-MSP2_207–222 (WT)] (Ac-SQKECTDGNKENCGAA-NH2; disulfide 5-13)	1500	900

From publication PMC8402609, “Guiding the Immune Response to a Conserved Epitope in MSP2, an Intrinsically Disordered Malaria Vaccine Candidate” (Vaccines, 2021)
